Like-named read-outs stand apart in the source and are kept apart here.
Legend:
[1] = target: T1, phosphodiesterase 4 (PDE4), PDE4A1A (Homo sapiens, UniProt P27815); experiment: PDE4A1A Assay Kit, fluorescence polarization; type: biochemical
T1 construct: purchased BSP Bioscience 60340
Method: Inhibition of PDE4 blocks hydrolysis of cAMP, thereby increasing levels of cAMP. The PDE4A1A Assay Kit is designed for identification of PDE4A1A inhibitors using fluorescence polarization. The assay is based on the binding of fluorescent AMP generated by PDE4A1A to the binding agent.
The assay was performed according to the protocol of the PDE4A1A assay provided by BSP Bioscience [BSP Bioscience, Data sheet PDE4A1A Assay Kit, Catalog #60340].
(§1) A fluorescence plate reader (Appliskan, Thermo Scientific) was used to detect fluorescence emission signals according to the following parameters:
(§2) Selected alkaloids of the invention prepared in example 1 were tested in 5 times dilutions to establish the 50% inhibitory concentration (IC-50).

IkappaB kinase β (IKK-β) = target: T2, IkappaB kinase β (IKK-β) (Homo sapiens, UniProt O14920); experiment: IKK-β inhibition, Z'-LYTE Kinase Assay Kit Ser/Thr 5 Peptide (FRET); type: biochemical
T2 construct: purchased Invitrogen
T2 sequence (O14920 1-756): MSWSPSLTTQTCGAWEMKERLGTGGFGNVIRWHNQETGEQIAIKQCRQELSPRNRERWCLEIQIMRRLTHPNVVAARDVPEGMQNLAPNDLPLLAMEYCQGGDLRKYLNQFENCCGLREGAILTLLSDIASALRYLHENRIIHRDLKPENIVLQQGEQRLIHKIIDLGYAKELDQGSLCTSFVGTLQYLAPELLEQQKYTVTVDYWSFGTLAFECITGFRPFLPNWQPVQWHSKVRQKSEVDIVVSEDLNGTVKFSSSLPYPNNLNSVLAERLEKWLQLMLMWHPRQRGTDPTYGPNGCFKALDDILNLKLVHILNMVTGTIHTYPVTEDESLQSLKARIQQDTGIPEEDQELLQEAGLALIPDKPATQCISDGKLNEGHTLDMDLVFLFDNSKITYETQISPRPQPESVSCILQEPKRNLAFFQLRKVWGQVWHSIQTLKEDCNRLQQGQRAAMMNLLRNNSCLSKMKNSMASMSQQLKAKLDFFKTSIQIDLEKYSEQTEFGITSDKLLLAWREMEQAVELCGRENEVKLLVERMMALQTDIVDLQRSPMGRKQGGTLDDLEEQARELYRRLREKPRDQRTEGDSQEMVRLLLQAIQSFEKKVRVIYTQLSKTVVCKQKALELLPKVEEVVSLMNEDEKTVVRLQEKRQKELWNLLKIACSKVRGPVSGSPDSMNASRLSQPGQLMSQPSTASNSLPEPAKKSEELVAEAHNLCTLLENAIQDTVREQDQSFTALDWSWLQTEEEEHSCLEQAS
Method: IKK-β phosphorylates the inhibitory IκB protein associated with NF-κB. Phosphorylation results in the dissociation of IκB from NF-κB, allowing NF-κB to migrate into the cell nucleus where it can activate the transcription of at least 150 genes. The Z9-LYTE™ Kinase Assay Kit—Ser/Thr 5 Peptide is designed to screen for potential IKK-β inhibitory effect using fluorescence resonance energy transfer (FRET) between coumarin and fluorescein for detection by a fluorometer.
The assay was performed according to Z9-LYTE™ KINASE ASSAY KIT—SER/THR 5 PEPTIDE protocol provided by Invitrogen [Invitrogen, Z′-LYTE™ Kinase Assay Kit—Ser/Thr 5 Peptide Protocol, O-062187-r1 US 0405]. Based on the IKK-β certificate of the kit, a kinase concentration of 500 ng/ml was chosen. Km for ATP 9.4 μM was chosen according to an optimization for the LanthaScreen™ kinase assay [http://tools.invitrogen.com/content/sfs/manuals/IKBKB_%28IKK_beta %29_LanthaScreen_Activity.pdf].
as §1, §2

[2] = target: T3, phosphodiesterase 5A (PDE5) (Homo sapiens, UniProt O76074); experiment: PDE5A Assay Kit, fluorescence polarization; type: biochemical
T3 construct: purchased BSP Bioscience 60350
Method: Inhibition of PDE5 blocks hydrolysis of cGMP, thereby increasing levels of cGMP. The PDE5A Assay Kit is designed for identification of PDE5A inhibitors using fluorescence polarization. The assay is based on the binding of a fluorescent nucleotide monophosphate generated by PDE5A to the binding agent.
The assay was performed according to the protocol of the PDE5A assay provided by BSP Bioscience [BSP Bioscience, Data sheet PDE5A Assay Kit, Catalog #60350].
as §1, §2

[3] = system: hyperlipidemic guinea pigs; experiment: Hypocholesterolemic effect in hyperlipidemic guinea pigs induced by high fat diet; type: in vivo, guinea pig; conditions: 10 mg/kg oral once daily, 28 days
Method: Male Dunkin-Hartley guinea pigs weighing 300+/−30 g were acclimated one week before the in-life phase of the experiment. The study diet (Research Diets Inc, New Brunswick, N.J., USA) contained 15% corn oil and 0.25% cholesterol. A daily oral dose of 2000 mg/kg of RAP2 corresponding 9 μg/kg of Ribetril A and 82 μg/kg total Ribetrils as well as 632 μg/kg total Glucoindols was administered orally at a dosing volume of 10 mL/kg. A daily oral dose of 2000 mg/kg of RAP4 corresponding to 112 μg/kg of Ribetril A and 492 μg/kg total Ribetrils as well as 240 μg/kg total Glucoindols was administered orally at a dosing volume of 10 mL/kg. The positive control atorvastatin (10 mg/kg) and vehicle (0.5% methylcellulose) were each administered orally at a dosing volume of 10 mL/kg. […]
After fasting overnight, blood samples were obtained from the retro-orbital sinus of each animal 5 min before initial test substance and/or vehicle administration (pre-treatment) and 24 hours after dosing on days 14 and 28 (post-treatment). The serum total cholesterol (TC), low density lipoprotein cholesterol (LDL-C), high density lipoprotein cholesterol (HDL-C) and triglycerides (TG) were determined by an enzymatic method (Wako total cholesterol, LDL-C, HDL-C & TG diagnostic kit and Toshiba Automatic Analyzer Model TAB-120FR).

[4] = system: BKS Cg-Lepr db/Lepr db mice; experiment: Hypoglycemic effect in BKS Cg-Lepr db/Lepr db mice (NIDDM model); type: in vivo, mouse; conditions: 300 mg/kg oral daily, day 14 post dosing
Method: Male non-insulin dependent diabetic mellitus (NIDDM) mice (BKS Cg-Lepr db/Lepr db) weighing 50+/−5 g were used at age of 12-13 weeks. A daily oral dose of 2000 mg/kg of RAP4 corresponding to corresponding to 112 μg/kg of Ribetril A and 492 μg/kg total Ribetrils as well as 240 μg/kg total Glucoindols was administered orally at a dosing volume of 10 mL/kg to 12 animals for a total of 14 consecutive days. The positive control of metformin (300 mg/kg) and vehicle (2% Tween 80) were each administered orally at a dosing volume of 10 mL/kg to groups of 6 animals once daily for a total of 14 consecutive days. Serum glucose levels were measured by means of an automated analyzer (TBA-120FR, Toshiba) and serum insulin by ELISA at zero min (pre-treatment) on Day 1, and at 90 min after the daily dosing (post-treatment) on Day 7 and Day 14.

[5] = read-out: Inhibitory effect on PDE4 IC-50
[6] = read-out: Inhibitory effect on IKK-β IC-50
[7] = read-out: Inhibitory effect on PDE5 IC-50

T1 sequence (P27815 1-647 isoform P27815-4): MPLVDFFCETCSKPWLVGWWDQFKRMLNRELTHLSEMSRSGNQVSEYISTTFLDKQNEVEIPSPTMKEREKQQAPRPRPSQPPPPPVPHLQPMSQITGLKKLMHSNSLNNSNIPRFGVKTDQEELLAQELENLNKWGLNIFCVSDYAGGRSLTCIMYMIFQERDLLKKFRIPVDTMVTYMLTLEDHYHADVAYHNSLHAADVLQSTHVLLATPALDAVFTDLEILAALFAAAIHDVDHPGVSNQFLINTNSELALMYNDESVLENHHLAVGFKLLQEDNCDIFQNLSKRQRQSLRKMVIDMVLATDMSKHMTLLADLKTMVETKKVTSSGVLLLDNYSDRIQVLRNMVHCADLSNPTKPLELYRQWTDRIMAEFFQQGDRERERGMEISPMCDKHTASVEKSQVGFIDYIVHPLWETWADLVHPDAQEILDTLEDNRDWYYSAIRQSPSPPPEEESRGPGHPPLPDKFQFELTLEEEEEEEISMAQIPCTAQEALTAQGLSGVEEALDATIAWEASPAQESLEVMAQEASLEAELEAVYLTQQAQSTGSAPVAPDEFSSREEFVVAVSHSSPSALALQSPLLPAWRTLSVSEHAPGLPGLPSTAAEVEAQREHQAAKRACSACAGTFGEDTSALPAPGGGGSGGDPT

## COC(=O)Cc1cn([C@@H]2O[C@H](CO)[C@@H](O)[C@H](O)[C@H]2O)c2ccccc12 [Glucoindol B, methyl 2-(1-((2R,3R,4S,5S,6R)-3,4,5-trihydroxy-6-(hydroxymethyl)tetrahydro-2H-pyran-2-yl)-1H-indol-3-yl)acetate]
[1]; [5]
  IC50: 45.6 µM

## N#C/C(=C\CO[C@@H]1O[C@H](CO)[C@@H](O)[C@H](O)[C@H]1O)COC(=O)/C=C/c1ccc(O)cc1 [Ribetril C, (E)-(E)-2-cyano-4-(beta-D-glucopyranosyloxy)but-2-en-1-yl 3-(4-hydroxyphenyl)acrylate]
IkappaB kinase β (IKK-β); [6]
  IC50: 15300 nM
[2]; [7]
  IC50: 17.2 µM
[1]; [5]
  IC50: 59.7 µM

## N#C/C(=C\CO[C@@H]1O[C@H](CO)[C@@H](O)[C@H](O)[C@H]1O)COC(=O)c1ccc(O)cc1 [Ribetril E, (E)-2-cyano-4-(beta-D-glucopyranosyloxy)but-2-en-1-yl 4-hydroxybenzoate]
IkappaB kinase β (IKK-β); [6]
  IC50: 1900 nM
[2]; [7]
  IC50: 3.4 µM
[1]; [5]
  IC50: 3.5 µM

## N#C/C(=C\CO[C@@H]1O[C@H](CO)[C@@H](O)[C@H](O)[C@H]1O)COC(=O)/C=C/c1ccc(O)c(O)c1 [Ribetril A, (E)-(E)-2-cyano-4-(((2R,3R,4S,5S,6R)-3,4,5-trihydroxy-6-(hydroxymethyl)tetrahydro-2H-pyran-2-yl)oxy)but-2-en-1-yl 3-(3,4-dihydroxyphenyl)acrylate]
IkappaB kinase β (IKK-β); [6]
  IC50: 130 nM
IkappaB kinase β (IKK-β); vs Ribetril B
  times lower IC-50 as compared to Ribetril B (IKK-β): 48 times
IkappaB kinase β (IKK-β); vs Ribetril C
  times lower IC-50 as compared to Ribetril C (IKK-β): 118 times
[2]; [7]
  IC50: 2.1 µM
[2]; vs Ribetril B
  times lower IC-50 as compared to Ribetril B (PDE5): 3 times
[2]; vs Ribetril C
  times lower IC-50 as compared to Ribetril C (PDE5): 8 times
[1]; [5]
  IC50: 2.95 µM
[1]; vs Ribetril B
  times lower IC-50 as compared to Ribetril B (PDE4): 5 times
[1]; vs Ribetril C
  times lower IC-50 as compared to Ribetril C (PDE4): 20 times

## COc1cc(/C=C/C(=O)OC/C(C#N)=C/CO[C@@H]2O[C@H](CO)[C@@H](O)[C@H](O)[C@H]2O)ccc1O [Ribetril B, (E)-(E)-2-cyano-4-(beta-D-glucopyranosyloxy)but-2-en-1-yl 3-(4-hydroxy-3-methoxyphenyl)acrylate]
IkappaB kinase β (IKK-β); [6]
  IC50: 6300 nM
[2]; [7]
  IC50: 5.4 µM
[1]; [5]
  IC50: 14 µM

## O=C(O)Cc1cn([C@@H]2O[C@H](CO)[C@@H](O)[C@H](O)[C@H]2O)c2ccccc12 [Glucoindol A, 2-(1-((2R,3R,4S,5S,6R)-3,4,5-trihydroxy-6-(hydroxymethyl)tetrahydro-2H-pyran-2-yl)-1H-indol-3-yl)acetic acid]
[1]; [5]
  IC50: 86.1 µM

## CC(C)c1c(C(=O)Nc2ccccc2)c(-c2ccccc2)c(-c2ccc(F)cc2)n1CC[C@@H](O)C[C@@H](O)CC(=O)O [atorvastatin]
[3]
  triglyceride reduction: did not significantly reduce triglycerides

## CN(C)C(=N)N=C(N)N [metformin]
[4]
  serum glucose levels relative to vehicle control: significant decrease

## COc1cc(C(=O)OC/C(C#N)=C/CO[C@@H]2O[C@H](CO)[C@@H](O)[C@H](O)[C@H]2O)ccc1O [Ribetril D, (E)-2-cyano-4-(beta-D-glucopyranosyloxy)but-2-en-1-yl 4-hydroxy-3-methoxybenzoate]
IkappaB kinase β (IKK-β)
  IC50: 37 nM
[2]
  IC50: < 0.04 µM
[1]
  IC50: 0.23 µM

Source: patent US9023816B2, “Bioactive alkaloid compositions and their medical uses” (Asiros A/S, priority 2013, dated 2015)
